Where two headings read alike, the source gives them in different places.
Experiments:
Caco-2 cells [1] = system: Caco-2 cells
U373-MAGI-CXCR4CEM cells = settings: at 5 μM, data not shown
[2] = buffer
in vitro = settings: human, Caco-2, pH 7.4
[3] = pH 7.4, reported for the parent compound; cited from earlier work
Caco-2 cells [4] = experiment: Caco-2 assay to assess permeability; settings: divalerate prodrug versus parent drug

SMILES	Permeability (Caco-2 cells [1]; Caco-2) [cm/s]	Permeability of prodrug relative to parent compound (Caco-2 cells [1]; Caco-2)	Permeability (Caco-2 cells [1]; Caco-2, pH 7.4)	Decrease in cell proliferation (U373-MAGI-CXCR4CEM cells)	Half-life at pH 2.0 [2] [h]	Half-life at pH 4.65 [2] [h]	Half-life at pH 7.4 [2] [h]	recovery at 60 min, 10 μM (in vitro) [%]	Half-life at pH 7.4 [3] [h]	Permeability of prodrug relative to parent compound (Caco-2 cells [4]) [fold]
CCCCC(=O)OC[C@H]1O[C@@H](n2cnc(N)nc2=O)C[C@@H]1OC(=O)CCCC [Decitabine divalerate, decitabine divalerate]	3.2e-06	fourfold higher	3.2 10^−6 cm/s	less than 5%	17	36	28	–	–	–
Nc1ncn([C@H]2C[C@H](O)[C@@H](CO)O2)c(=O)n1 [Decitabine, 5-aza-2′-deoxycytidine]	–	–	–	–	–	–	–	91	12.9 ±0.9	–
CCCCC(=O)OC[C@H]1O[C@@H](n2ccc(N)nc2=O)C(F)(F)[C@@H]1OC(=O)CCCC [Gemcitabine divalerate, gemcitabine divalerate]	2.1e-06	–	2.1 10^−6 cm/s	–	85	247	135	–	–	4.2
Nc1ccn([C@@H]2O[C@H](CO)[C@@H](O)C2(F)F)c(=O)n1 [Gemcitabine, 2′,2′-difluoro-2′-deoxycytidine]	–	–	–	–	–	–	–	111	–	–

Source: article PMC4489529 (Antiviral chemistry & chemotherapy, 2014)
